± gives the expanded uncertainty stated by the source.
Experiment: xn = mol fraction of the nth substance listed
Details: Liquid, Vibrating tube method, x1 = 1

CCO [ethanol] + CCCCCCC
mass density [kg/m3]
Details | 293.15 K | 303.15 K | 313.15 K | 323.15 K | 333.15 K
100 kPa | 789.4 ± 1 | 781.1 ± 1 | 772.3 ± 1 | 763.1 ± 1 | 754.2 ± 1
5000 kPa | 793.5 ± 1 | 785.7 ± 1 | 776.9 ± 1 | 768 ± 1 | 759.4 ± 1
10000 kPa | 797.5 ± 1 | 789.8 ± 1 | 781.5 ± 1 | 772.9 ± 1 | 764.6 ± 1
15000 kPa | 801.4 ± 1 | 794 ± 1 | 785.8 ± 1 | 777.3 ± 1 | 769.4 ± 1
20000 kPa | 805.2 ± 1 | 797.8 ± 1 | 789.8 ± 1 | 781.4 ± 1 | 773.8 ± 1
25000 kPa | 808.7 ± 1 | 801.6 ± 1 | 793.7 ± 1 | 785.7 ± 1.1 | 777.8 ± 1.1
30000 kPa | 812.1 ± 1.1 | 805 ± 1.1 | 797.4 ± 1.1 | 789.4 ± 1.1 | 781.7 ± 1.1
35000 kPa | 815.3 ± 1.1 | 808.5 ± 1.1 | 801 ± 1.1 | 793.1 ± 1.1 | 785.6 ± 1.1
40000 kPa | 818.6 ± 1.1 | 811.8 ± 1.1 | 804.4 ± 1.1 | 796.7 ± 1.1 | 789.3 ± 1.1
45000 kPa | 821.6 ± 1.1 | 814.9 ± 1.1 | 807.8 ± 1.1 | 800.1 ± 1.1 | 792.8 ± 1.1
50000 kPa | 824.6 ± 1.1 | 817.9 ± 1.1 | 810.8 ± 1.1 | 803.5 ± 1.1 | 796.3 ± 1.1
55000 kPa | 827.5 ± 1.1 | 821.1 ± 1.1 | 813.7 ± 1.1 | 806.6 ± 1.1 | 799.7 ± 1.1
60000 kPa | 830.2 ± 1.1 | 824 ± 1.1 | 816.6 ± 1.1 | 809.7 ± 1.1 | 802.9 ± 1.1
65000 kPa | 832.9 ± 1.1 | 826.7 ± 1.1 | 819.5 ± 1.1 | 812.6 ± 1.1 | 806 ± 1.1
